Measurements from PubChem BioAssay AID330 (DTP/NCI, 2004).
Several values for one entry are separate records, joined by “and”; a condition that tells them apart may be missing. Identical values can stand only once. Inconclusive results and toxic doses are left out. Rule for the calls: active = survival T/C of 150% or more; inactive = T/C below 125% in these data.

Test system: P388 leukemia ip, CD2F1 mice, survival T/C
Test: NCI In Vivo Anticancer Drug Screen. Data for tumor model P388 Leukemia (intraperitoneal) in CD2F1 (CDF1) mice
Details: endpoint: median survival time, higher = longer survival
How it was run: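 Mice carrying the transplanted tumor received test compound or vehicle. Survival was recorded in each group, and the value is the treated-group measurement divided by that of the vehicle-treated control group.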

[1] = dose: 60.0 mg/kg/injection, schedule: Q01DX005 (ip), vehicle: saline
[2] = dose: 120.0 mg/kg/injection, schedule: Q01DX005 (ip), vehicle: saline
[3] = dose: 240.0 mg/kg/injection, schedule: Q01DX005 (ip), vehicle: saline
[4] = dose: 50.0 mg/kg/injection, schedule: Q01DX009 (ip), vehicle: saline with Tween-80
[5] = dose: 100.0 mg/kg/injection, schedule: Q01DX009 (ip), vehicle: saline with Tween-80
[6] = dose: 200.0 mg/kg/injection, schedule: Q01DX009 (ip), vehicle: saline with Tween-80
[7] = dose: 50.0 mg/kg/injection, schedule: Q01DX009 (ip), vehicle: Klucel (hydroxypropylcellulose) (HPC)
[8] = dose: 100.0 mg/kg/injection, schedule: Q01DX009 (ip), vehicle: Klucel (hydroxypropylcellulose) (HPC)
[9] = dose: 200.0 mg/kg/injection, schedule: Q01DX009 (ip), vehicle: Klucel (hydroxypropylcellulose) (HPC)
[10] = dose: 12.5 mg/kg/injection, schedule: Q01DX009 (ip), vehicle: saline
[11] = dose: 25.0 mg/kg/injection, schedule: Q01DX009 (ip), vehicle: saline
[12] = dose: 50.0 mg/kg/injection, schedule: Q01DX009 (ip), vehicle: saline
[13] = dose: 100.0 mg/kg/injection, schedule: Q01DX009 (ip), vehicle: saline
[14] = dose: 100.0 mg/kg/injection, schedule: Q04DX003 (ip), vehicle: saline with Tween-80
[15] = dose: 400.0 mg/kg/injection, schedule: Q04DX003 (ip), vehicle: saline with Tween-80
[16] = dose: 25.0 mg/kg/injection, schedule: Q01DX009 (ip), vehicle: Klucel (hydroxypropylcellulose) (HPC)
[17] = dose: 50.0 mg/kg/injection, schedule: Q01DX005 (ip), vehicle: saline with Tween-80
[18] = dose: 100.0 mg/kg/injection, schedule: Q01DX005 (ip), vehicle: saline with Tween-80
[19] = dose: 200.0 mg/kg/injection, schedule: Q01DX005 (ip), vehicle: saline with Tween-80

Measured: T/C

CC/C(=N/N(C)C)C(=O)OC(C)(C)C
inactive: [1] 95 % of control | [2] 93 % of control | [3] 90 % of control

NOCc1ccc(CON)cc1
inactive: [4] 95 % of control | [5] 95 % of control | [6] 91 % of control

COc1cc(/C=C/c2cc(OC)c(OC)c(OC)c2)oc(=O)c1
inactive: [7] 98 % of control | [8] 104 % of control | [9] 99 % of control

NCC[Se]CC(N)C(=O)O (stereo not given)
inactive: dose: 6.25 mg/kg/injection, schedule: Q01DX009 (ip), vehicle: saline 101 % of control | [10] 100 % of control | [11] 101 % of control

C/C=C/CC1(C)N=C1c1ccccc1 (stereo not given)
inactive: dose: 100.0 mg/kg/injection, schedule: Q01DX001 (ip), vehicle: Klucel (hydroxypropylcellulose) (HPC) 99 % of control | dose: 200.0 mg/kg/injection, schedule: Q01DX001 (ip), vehicle: Klucel (hydroxypropylcellulose) (HPC) 99 % of control | dose: 400.0 mg/kg/injection, schedule: Q01DX001 (ip), vehicle: Klucel (hydroxypropylcellulose) (HPC) 102 % of control

CCN(CC)CCOCCC1(C)Oc2ccc(Cl)cc2O1 (stereo not given)
inactive: [12] 93 % of control | [13] 93 % of control

CCCCOC(=O)C(C)OC(=O)Nc1cccc(Cl)c1 (stereo not given)
inactive: [14] 90 % of control | dose: 200.0 mg/kg/injection, schedule: Q04DX003 (ip), vehicle: saline with Tween-80 90 % of control | [15] 100 % of control

CC1(C)SC(C2NC(=O)C(c3ccccc3)NC2=O)NC1C(=O)O (stereo not given)
inactive: dose: 60.0 mg/kg/injection, schedule: Q01DX005 (ip), vehicle: Klucel (hydroxypropylcellulose) (HPC) 105 % of control | dose: 120.0 mg/kg/injection, schedule: Q01DX005 (ip), vehicle: Klucel (hydroxypropylcellulose) (HPC) 99 % of control | dose: 240.0 mg/kg/injection, schedule: Q01DX005 (ip), vehicle: Klucel (hydroxypropylcellulose) (HPC) 101 % of control

COc1cc(/C=C\Cc2cc3c(cc2OC(C)=O)OCO3)cc(OC)c1OC
inactive: dose: 60.0 mg/kg/injection, schedule: Q01DX005 (ip), vehicle: saline with Tween-80 91 % of control | dose: 120.0 mg/kg/injection, schedule: Q01DX005 (ip), vehicle: saline with Tween-80 91 % of control | dose: 240.0 mg/kg/injection, schedule: Q01DX005 (ip), vehicle: saline with Tween-80 90 % of control

c1ccc2c[n+](CC[n+]3ccc4ccccc4c3)ccc2c1
inactive: dose: 25.0 mg/kg/injection, schedule: Q01DX009 (ip), vehicle: saline with Tween-80 100 % of control | [4] 118 % of control

COc1ccc(N(C)C(=O)/C=C/N2CCCCC2)cc1
inactive: dose: 12.5 mg/kg/injection, schedule: Q01DX005 (ip), vehicle: Klucel (hydroxypropylcellulose) (HPC) 107 % of control | dose: 25.0 mg/kg/injection, schedule: Q01DX005 (ip), vehicle: Klucel (hydroxypropylcellulose) (HPC) 98 % of control | dose: 50.0 mg/kg/injection, schedule: Q01DX005 (ip), vehicle: Klucel (hydroxypropylcellulose) (HPC) 114 % of control and 98 % of control | dose: 100.0 mg/kg/injection, schedule: Q01DX005 (ip), vehicle: Klucel (hydroxypropylcellulose) (HPC) 124 % of control and 96 % of control | dose: 200.0 mg/kg/injection, schedule: Q01DX005 (ip), vehicle: Klucel (hydroxypropylcellulose) (HPC) 109 % of control

CCOC(=O)C1OC1(C(F)(F)F)C(F)(F)F (stereo not given)
inactive: [4] 93 % of control | [5] 98 % of control | [6] 104 % of control

Cc1cc(N2C(=O)CCSC2=S)ccc1Cl
inactive: dose: 12.5 mg/kg/injection, schedule: Q01DX009 (ip), vehicle: Klucel (hydroxypropylcellulose) (HPC) 120 % of control | [16] 119 % of control | [7] 109 % of control and 114 % of control | dose: 50.0 mg/kg/injection, schedule: Q01DX009 (ip), vehicle: suspension in saline 97 % of control | dose: 100.0 mg/kg/injection, schedule: Q01DX009 (ip), vehicle: suspension in saline 90 % of control | [9] 102 % of control | dose: 200.0 mg/kg/injection, schedule: Q01DX009 (ip), vehicle: suspension in saline 92 % of control

COC(=O)C12OCC34C(CC5C(C)=C(O)C(=O)CC5(C)C3C(O)C1O)OC(=O)C(OC(=O)N(C)[Si](C)(C)C(C)(C)C)C24 (stereo not given)
inactive: dose: 125.0 micrograms/kg/injection, schedule: Q01DX005 (ip), vehicle: Klucel (hydroxypropylcellulose) (HPC) 101 % of control | dose: 250.0 micrograms/kg/injection, schedule: Q01DX005 (ip), vehicle: Klucel (hydroxypropylcellulose) (HPC) 95 % of control | dose: 500.0 micrograms/kg/injection, schedule: Q01DX005 (ip), vehicle: Klucel (hydroxypropylcellulose) (HPC) 96 % of control | dose: 1000.0 micrograms/kg/injection, schedule: Q01DX005 (ip), vehicle: Klucel (hydroxypropylcellulose) (HPC) 95 % of control

CCN(CC)CCOCCCNc1ccnc2cc(Cl)ccc12
inactive: dose: 50.0 mg/kg/injection, schedule: Q01DX005 (ip), vehicle: saline 100 % of control | dose: 100.0 mg/kg/injection, schedule: Q01DX005 (ip), vehicle: saline 103 % of control

O=[N+]([O-])c1ccc(N/N=C\c2c(Cl)n(-c3ccccc3)c3ccccc23)c([N+](=O)[O-])c1
inactive: dose: 25.0 mg/kg/injection, schedule: Q01DX005 (ip), vehicle: saline with Tween-80 106 % of control | [17] 100 % of control and 105 % of control | [18] 109 % of control and 117 % of control | [14] 90 % of control | [19] 109 % of control and 114 % of control | [15] 88 % of control

CNC(=O)Oc1c(C)[nH]ccc1=O
inactive: dose: 400.0 mg/kg/injection, schedule: Q01DX009 (ip), vehicle: saline 107 % of control

ClCCN(CCCl)c1ccc(/C=N/Nc2ccnc3ccccc23)cc1
inactive: dose: 0.39 mg/kg/injection, schedule: Q01DX009 (ip), vehicle: DMSO 92 % of control | dose: 0.78 mg/kg/injection, schedule: Q01DX009 (ip), vehicle: DMSO 87 % of control | dose: 1.56 mg/kg/injection, schedule: Q01DX009 (ip), vehicle: DMSO 90 % of control

Cc1ccc(S(=O)(=O)N/N=C/c2cc(I)cc(I)c2O)cc1
inactive: [17] 98 % of control | [18] 100 % of control | [19] 100 % of control

O=C(C[n+]1ccn(CC(OCc2ccc(Cl)cc2Cl)c2ccc(Cl)cc2Cl)c1)c1ccc(F)cc1 (stereo not given)
inactive: dose: 3.12 mg/kg/injection, schedule: Q01DX005 (ip), vehicle: saline with Tween-80 101 % of control | dose: 6.25 mg/kg/injection, schedule: Q01DX005 (ip), vehicle: saline with Tween-80 95 % of control | dose: 12.5 mg/kg/injection, schedule: Q01DX005 (ip), vehicle: saline with Tween-80 95 % of control

CNC1CCCCC1[N+](C)(C)C (stereo not given)
inactive: dose: 5.0 mg/kg/injection, schedule: Q01DX009 (ip), vehicle: saline sonified 95 % of control | dose: 10.0 mg/kg/injection, schedule: Q01DX009 (ip), vehicle: saline sonified 100 % of control | dose: 20.0 mg/kg/injection, schedule: Q01DX009 (ip), vehicle: saline sonified 100 % of control

CC(C)c1ccc(C(CC(=O)c2ccccc2)C(C(=O)O)c2ccccc2)cc1 (stereo not given)
inactive: [7] 97 % of control | [8] 89 % of control | [9] 89 % of control

CSC(=Cc1ccc2cc(Br)ccc2[n+]1C)SC
inactive: dose: 3.12 mg/kg/injection, schedule: Q01DX009 (ip), vehicle: Klucel (hydroxypropylcellulose) (HPC) 110 % of control | dose: 6.25 mg/kg/injection, schedule: Q01DX009 (ip), vehicle: Klucel (hydroxypropylcellulose) (HPC) 117 % of control and 121 % of control | [16] 107 % of control

CCn1c2ccc(C(=O)CCCN(C)C)cc2c2cc(C(=O)CCCN(C)C)ccc21
inactive: [10] 118 % of control and 122 % of control | [11] 108 % of control and 116 % of control

CC(NC(CCCN=C(N)N)C(=O)O)C(=O)O (stereo not given)
inactive: [1] 92 % of control | [2] 100 % of control | [3] 100 % of control

Cc1cccc(NC(=O)c2ccccc2)n1
inactive: dose: 12.5 mg/kg/injection, schedule: Q04DX003 (ip), vehicle: saline 104 % of control | dose: 25.0 mg/kg/injection, schedule: Q04DX003 (ip), vehicle: saline 100 % of control | dose: 50.0 mg/kg/injection, schedule: Q04DX003 (ip), vehicle: saline 90 % of control

N=C1C=C(N)CS1
inactive: [12] 87 % of control | [13] 86 % of control | dose: 200.0 mg/kg/injection, schedule: Q01DX009 (ip), vehicle: saline 88 % of control
